In patent publication US5874436A, “Triphenylalkyl antimicrobial agents” (priority 1997, dated 1999):
In brackets after ≈: the same amount, converted by molar mass.

Columns and labels:
Kinase A and Spo0F = target: T1, Kinase A and Spo0F (Bacillus subtilis, UniProt P16497); experiment: Autophosphorylation of Kinase A and transphosphorylation of Spo0F assay (HPK in vitro assay); assay type: biochemical; details: inhibitor concentrations from 1 to 500 μM, [32P]ATP, phosphoimager
T1 construct: made in house; host or cells: E. coli (recombinant, overexpressing)
T1 sequence (P16497 1-606): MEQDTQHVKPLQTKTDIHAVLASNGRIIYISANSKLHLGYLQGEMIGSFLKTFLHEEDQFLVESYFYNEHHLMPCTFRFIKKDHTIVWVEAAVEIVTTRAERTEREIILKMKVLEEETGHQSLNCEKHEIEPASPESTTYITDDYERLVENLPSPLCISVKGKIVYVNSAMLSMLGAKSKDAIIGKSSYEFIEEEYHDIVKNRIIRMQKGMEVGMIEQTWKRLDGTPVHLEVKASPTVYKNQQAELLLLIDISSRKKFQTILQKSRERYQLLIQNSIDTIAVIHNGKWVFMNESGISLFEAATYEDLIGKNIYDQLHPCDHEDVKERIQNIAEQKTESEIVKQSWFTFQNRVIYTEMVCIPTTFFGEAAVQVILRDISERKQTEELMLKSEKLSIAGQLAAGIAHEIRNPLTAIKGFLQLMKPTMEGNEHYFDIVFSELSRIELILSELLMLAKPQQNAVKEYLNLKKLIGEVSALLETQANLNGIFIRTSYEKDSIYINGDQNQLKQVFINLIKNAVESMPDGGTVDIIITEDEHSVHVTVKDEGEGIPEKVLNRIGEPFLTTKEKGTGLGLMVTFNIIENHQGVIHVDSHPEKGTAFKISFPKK
Experimental: 1. Autophosphorylation of Kinase A and Transphosphorylation of Spo0F Assay
To study the effect of the compounds of the present invention on the signal transduction process in bacteria, the inhibiting effect of the compounds on the sporulation operon proteins Kinase A and Spo0F was examined. Specifically, the inhibition of autophosphorylation of Kinase A and the transphosphorylation of Spo0F was determined in the following assays. The Spo0F response regulator is the primary substrate for phosphorylation by the protein kinase, Kin A, involved in the sporulation process in bacteria. See D. Burbulys, K. A. Trach, J. A. Hoch, Cell, 64, 545-552 (1991). Spo0F and KinA were prepared from recombinant E. coli overexpressing the proteins (J. Cavanagh et al, Amino Acids, 6, 131-140 (1994) and references therein).
The following stock reagents were either prepared and used promptly or stored at the indicated temperature:
8 X Salts : 2M KCl (5 mL), 1M MgCl2 (800 mL), 1M CaCl2 (100 mL), 10 mg/mL phenylmethylsulfonyl fluoride (200 mL), 1 M dithioreitol (50 mL), 0.25M Na2 EDTA (32 mL) and H2 O mL (-20° C.)
5×Loading Dye: 0.5M TRIS-HCl-pH 6.8 (7.5 mL), 10% SDS (2 mL) 0.1% bromophenol blue (0.5 mL), 100% glycerol (3 mL) and 12.5 M 2-mercaptoethanol (0.3 mL)
1-1.3 mg/mL KinA:15 mM TRIS-HCl, pH 8.0, 6 mM KCl; 4 mM 2-mercaptoethanol; 40% glycerol (-20° C.)
1 mg/mL Spo0F: 17.5 mM TRIS-HCl, pH 8.0; 0.7 mM KCl; 0.7 mM MgCl2; 0.7 mM CaCl2; 5mM 2-mercaptoethanol; 30% Glycerol (-20° C.)
5% Stacking Gel: 40% 29:1 acrylamide:bis acrylamide (1.25 mL), 0.5M TRIS-HCl, pH 6.8 (2.5 mL), 10% SDS (0.1 mL), D-H2 O (6.15 mL) 10% ammonium persulfate (100 mL) and TEMED (25 mL) SDS Running Buffer: TRIS-BASE (3.02 g), glycine (14.4 g) SDS (1 g), D-H2 O (to 1L)
The reaction mixture was prepared from 8×Salts (87 μL), 1M TRIS, pH 8 (118 μL), 50% glycerol (63 μL), Spo0F (14.1 μL) and KinA (7.0 μL). Microcentrifuge tubes were charged with the reaction mixture (18.5 μL) and a 1.0 mM solution of the test compound in 5% DMSO (18.5 μL), and incubated for 15 min on ice. 100 mM ATP solution (3.0 μl, containing 625 μCi [^32 P]ATP) was added, and the mixture left for 10 minutes at room temperature. The reaction was quenched with 5×loading dye (10 μL per tube) and the samples were loaded on a prepared 5% Stacking Gel, or stored on dry ice until ready for use. The prepared wells were filled with SDS Running Buffer, samples were loaded into the wells, and 80 volts were applied to the gel until the dye front reached the bottom of the stacking gel. The voltage was then increased to 250 volts until electrophoresis was complete. Radioactive bands in the gel corresponding to phosphorylated KinA and Spo0F were imaged and quantitated with a phosphoimager.
If either enzyme was inhibited (as evidenced by the absence of labelled protein in the developed gel), an IC50 was calculated by running the assay with a range of inhibitor concentrations from 1 to 500 μM. After electrophoresis of the reaction mixtures, percent inhibition was determined by measuring the concentration of radioactive phosphorus with a phosphoimager and calculating the values using a software program (BioRad Molecular Analyst).

selected microorganisms = experiment: MIC antimicrobial assay (NCCLS microdilution broth method); assay type: cell-based
Experimental: 2. MIC Anitimicrobial Assay
The in vitro antimicrobial activity of the compounds was determined by the microdilution broth method following the test method from the National Committee for Laboratory Standards (NCCLS). This method is described in the NCCLS Document M7-A2, Vol.10, No.8 "Methods for Dilution Antimicrobial Susceptibility Test for Bacteria that Grow Aerobically--Second Edition."
In this method two-fold serial dilutions of drug in cation supplemented Mueller-Hinton broth are added to wells in microdilution trays. The test organisms are prepared by adjusting the turbidity of actively growing broth cultures so that the final concentration of test organism after it is added to the wells is approximately 5×10^4 CFUs/well).
Following inoculation of the microdilution trays, the trays are incubated at 35° C. for 16-20 hours and then read. […] The amount of growth in the wells containing the test compound is compared with the amount of growth in the growth-control wells (no test compound) used in each tray.

IC50 (Kinase A and Spo0F) [µM]	SMILES	MIC (selected microorganisms) [µg/mL]
260	c1ccc(C(CCOc2ccc(CCC3=NCCO3)cc2)(c2ccccc2)c2ccccc2)cc1 [Example 19, 4.5-Dihydro-2-{2-[4-(3,3,3-triphenylpropoxy)-phenyl]ethyl} oxazole]	–
290	O=C(O)c1ccc(OCCC(c2ccccc2)(c2ccccc2)c2ccccc2)cc1 [Example 21, 4-(3,3,3-Triphenylpropoxy)benzoic acid]	–
73	O=C(O)C(O)c1ccc(OCCC(c2ccccc2)(c2ccccc2)c2ccccc2)cc1 (stereo not drawn) [Example 37, 2-[4-(3,3,3-Triphenylpropoxy)phenyl]glycolic acid]	–
27	O=C(O)CCc1ccccc1OCCC(c1ccccc1)(c1ccccc1)c1ccccc1 [Example 38, 3-[2-(3,3,3-Triphenylpropoxy)phenyl]propionic acid]	–
110	c1ccc(C(CCOc2ccc(-c3nnn[nH]3)cc2)(c2ccccc2)c2ccccc2)cc1 [Example 39, 5-[4-(3,3,3-Triphenylpropoxy)phenyl]-1H-tetrazole]	–
13	NCCCc1ccc(SCCC(c2ccccc2)(c2ccccc2)c2ccccc2)cc1 [Example 40, 3-[4-(3,3,3-Triphenylpropylthio)phenyl]propylamine]	–
18	O=C1NC(=O)C(c2ccc(OCCC(c3ccccc3)(c3ccccc3)c3ccccc3)cc2)S1 (stereo not drawn) [Example 41, 5-[4-(3,3,3-Triphenylpropoxy)phenyl]thiazolidine-2,4-dione]	–
85	O=C(O)c1c(O)cccc1OCCC(c1ccccc1)(c1ccccc1)c1ccccc1 [Example 42, 2-Hydroxy-6-(3,3,3-triphenylpropoxy)benzoic acid]	–
40	O=C(O)/C=C/c1cccc(OCCC(c2ccccc2)(c2ccccc2)c2ccccc2)c1 [Example 43, trans 3-(3,3,3-Triphenylpropoxy)cinnamic acid]	–
71	O=C(O)COc1cccc(OCCC(c2ccccc2)(c2ccccc2)c2ccccc2)c1 [Example 44, 3-(3,3,3-triphenylpropoxy)phenoxyacetic acid]	–
20	O=C(O)COc1ccccc1OCCC(c1ccccc1)(c1ccccc1)c1ccccc1 [Example 45, 2-(3,3,3-triphenylpropoxy)phenoxyacetic acid]	–
16	O=C(O)CCCOc1cccc(OCCC(c2ccccc2)(c2ccccc2)c2ccccc2)c1 [Example 46, 4-[3-(3,3,3-triphenylpropoxy)phenoxy]butyric acid]	–

Second part, the compound before the results:

SMILES	IC50 (Kinase A and Spo0F) [µM]	MIC (selected microorganisms) [µg/mL]
O=C(CC(c1ccccc1)(c1ccccc1)c1ccccc1)Nc1ccc(N2CCNCC2)cc1 [Example 1, 4-[4-(3,3,3-Triphenylpropanoylamino)phenyl]piperazine]	200	–
C1=C(c2ccc(OCCC(c3ccccc3)(c3ccccc3)c3ccccc3)cc2)CCNC1 [Example 2, 4-[4-(3,3,3-Triphenylpropyloxy)phenyl]-1,2,3,6-tetrahydropiperidine]	170	–
NCCc1ccc(OCCC(c2ccccc2)(c2ccccc2)c2ccccc2)cc1 [Example 3, 2-(4-(3,3,3-triphenylpropoxy)phenyl)ethylamine]	14	2 to 4 (≈ 4.91 to 9.81 µM)
NCc1ccc(OCCC(c2ccccc2)(c2ccccc2)c2ccccc2)cc1 [Example 4, 4-(3,3,3-triphenylpropoxy)benzylamine]	19	–
N=C(N)NCCc1ccc(OCCC(c2ccccc2)(c2ccccc2)c2ccccc2)cc1 [Example 5]	5	1 to 2 (≈ 2.22 to 4.45 µM)
NCCc1ccc(OCCC(c2ccc(Cl)cc2)(c2ccc(Cl)cc2)c2ccc(Cl)cc2)cc1 [Example 6]	150	–
NCCc1cccc(OCCC(c2ccccc2)(c2ccccc2)c2ccccc2)c1 [Example 7, 2-(3-(3,3,3-triphenylpropoxy)phenyl)ethylamine]	80	–
COc1ccc(CCN)cc1OCCC(c1ccccc1)(c1ccccc1)c1ccccc1 [Example 8, 2-(4-methoxy-3-(3,3,3-triphenylpropoxy)-phenyl)ethylamine]	27	4 (≈ 9.14 µM)
N=C(N)NCCc1ccc(OCCC(c2ccc(Cl)cc2)(c2ccc(Cl)cc2)c2ccc(Cl)cc2)cc1 [Example 9, N-(2-(4-(3,3,3-tris(4-chlorophenyl)propoxy)-phenyl)ethyl)guanidine]	21	8 (≈ 14.5 µM)
N=C(N)NCCc1ccc(OCCCCC(c2ccccc2)(c2ccccc2)c2ccccc2)cc1 [Example 10]	15	2 to 4 (≈ 4.19 to 8.37 µM)
N=C(N)NCCc1ccc(OCCCC(c2ccccc2)(c2ccccc2)c2ccccc2)cc1 [Example 11]	21	–
O=C(O)CCc1ccc(OCCC(c2ccccc2)(c2ccccc2)c2ccccc2)cc1 [Example 12, 3-[4-(3,3,3-Triphenylpropoxy)phenyl]propionic acid]	51	2 to 16 (≈ 4.58 to 36.7 µM)
O=C(O)Cc1ccc(OCCC(c2ccccc2)(c2ccccc2)c2ccccc2)cc1 [Example 13, 2-[4-(3,3,3-Triphenylpropoxy)phenyl]acetic acid]	50	8 to 16 (≈ 18.9 to 37.9 µM)
O=C(O)CCc1ccc(SCCC(c2ccccc2)(c2ccccc2)c2ccccc2)cc1 [Example 14, 3-[4-(3,3,3-Triphenylpropylthio)phenyl]propionic acid]	34	4 to 8 (≈ 8.84 to 17.7 µM)
O=C(O)CCCc1ccc(OCCC(c2ccccc2)(c2ccccc2)c2ccccc2)cc1 [Example 15, 4-[4-(3,3,3-Triphenylpropoxy)phenyl]butyric acid]	14	8 to 64 (≈ 17.8 to 142 µM)
NCCc1ccc(NC(=O)CC(c2ccccc2)(c2ccccc2)c2ccccc2)cc1 [Example 16, N-[4-(2-Aminoethyl)phenyl]-3,3,3triphenylpropionamide]	59	32 to 64 (≈ 76.1 to 152 µM)
O=C(O)c1ccc2cc(OCCC(c3ccccc3)(c3ccccc3)c3ccccc3)ccc2c1 [Example 17, 6-(3,3,3-Triphenylpropoxy)-2-naphthoic acid]	300	4 to 64 (≈ 8.72 to 140 µM)
N=C(N)NCCc1ccc(NC(=O)CC(c2ccccc2)(c2ccccc2)c2ccccc2)cc1 [Example 18, N-[4-(2-Guanidinoethyl)phenyl]-3,3,3-triphenylpropionamide]	51	4 to 16 (≈ 8.65 to 34.6 µM)
